Values joined by “and” are separate entries in the source; they are usually repeats but may differ in a detail not shown here. Equal entries are not always repeated. “Also recorded” adds a separate entry of the source.
How the values were obtained:
[1] = tested on: rabbit paracentesis model; assay: Rabbit paracentesis model, overall anti-inflammatory activity; format: in vivo; conditions: 0.1%, 0.5% and 1% topical formulations; preliminary conclusions; listed as BOL-303242-X
Description: Inflammatory processes are multidimensional in origin, and are characterized by complex cellular and molecular events involving numerous components all of which have not been identified. Prostaglandins are among these mediators and play an important role in certain forms of ocular inflammation. Paracentesis of the anterior chamber in the rabbit eye induces inflammatory reaction due to the disruption of the blood-aqueous barrier (“BAB”), which is mediated, at least in part, by prostaglandin E2 [References 1-3 below]. Intraocular or topical administration of PGE2 disrupts the BAB. [Reference 4, below] The treatment schedule adopted in this study was similar to the clinical NSAIDs (Ocufen) treatment schedule used by surgeons for patients before cataract surgery.
Each rabbit was placed in a restraint device and tagged with the alphanumeric code. The formulations were instilled (50 μl) into the conjunctival sac of both eyes 180, 120, 90 and 30 min before the first paracentesis; then 15, 30, 90 min after the first paracentesis. To perform the first paracentesis the animals were anaesthetized by intraveneous injection of 5 mg/kg Zoletil® (Virbac; 2.5 mg/kg tiletamine HCl and 2.5 mg/kg zolazepam HCl) and one drop of local anesthetic (Novesina®, Novartis) was administered to the eye. […]

[2] = tested on: leukocytes (PMN) in aqueous humor; assay: Leukocytes (PMN) measurement in aqueous humor; format: in vivo, Rabbit; conditions: second paracentesis; for PMN (number/μl) in aqueous humor, raw data: individual eye sample; for PMN in aqueous humor, Mean (number/μl): group mean
Description: (§1) Each rabbit was placed in a restraint device and tagged with the alphanumeric code. The formulations were instilled (50 μl) into the conjunctival sac of both eyes 180, 120, 90 and 30 min before the first paracentesis; then 15, 30, 90 min after the first paracentesis. To perform the first paracentesis the animals were anaesthetized by intraveneous injection of 5 mg/kg Zoletil® (Virbac; 2.5 mg/kg tiletamine HCl and 2.5 mg/kg zolazepam HCl) and one drop of local anesthetic (Novesina®, Novartis) was administered to the eye. Anterior chamber paracentesis was performed with a 26 G needle attached to a tuberculin syringe; the needle was introduced into the anterior chamber through the cornea, taking care not to damage the tissues. Two hours after the first paracentesis, the animals were sacrificed with 0.4 ml Tanax® (Intervet International B. V.) and the second paracentesis was performed. About 100 μl of aqueous humor were removed at the second paracentesis. Aqueous humor was immediately split in four aliquots and stored at −80° C. until analysis. Then both eyes were enucleated and the iris-ciliary body was carefully excised, placed in polypropylene tubes, and stored at −80° C. until analysis.
For the determination of the number of leukocytes we used a haemocytometer (Improved Neubauer Chamber; Brigth-line, Hausser Scientific) and a Polyvar 2 microscope (Reichert-Jung).
(§2) Pupillary diameter, PGE2, protein, PMN, and MPO were expressed as mean±SEM. Statistical analysis was performed using one way ANOVA followed by a Newman-Keuls post hoc test. Clinical score was expressed as % of eyes and the statistical analysis was performed using Kruskal-Wallis followed by a Dunn post hoc test. P<0.05 was considered statistically significant in both cases. Prism 4 software (GraphPad Software, Inc.) was used for the analysis and graphs.

[3] = tested on: rabbit eye (anterior chamber paracentesis); assay: Pupillary diameter measurement, rabbit paracentesis model; format: in vivo; conditions: group mean, n=8 eyes
Description: as §1
The pupillary diameter of both eyes was measured with a Castroviejo caliper 180 min and 5 min before the first paracentesis and 5 min before the second paracentesis.
as §2

[4] = tested on: PGE2 in the aqueous humor; assay: Prostaglandin E2 (PGE2) measurement in aqueous humor; format: in vivo, Rabbit; conditions: individual eye sample, second paracentesis

SMILES	Anti-inflammatory activity in rabbit paracentesis model (conclusion) [1]	PMN (number/μl) in aqueous humor, raw data ([2]; 0.1% topical formulation)	PMN (number/μl) in aqueous humor, raw data ([2]; 0.5% topical formulation)	PMN (number/μl) in aqueous humor, raw data ([2]; 1% topical formulation)	Mean (mm) Δ(T3-T1) pupillary diameter ([3]; 0.1% topical formulation) [mm]	Mean (mm) Δ(T3-T1) pupillary diameter ([3]; 0.5% topical formulation) [mm]	Mean (mm) Δ(T3-T1) pupillary diameter ([3]; 1% topical formulation) [mm]	PGE2 (ng/ml) in aqueous humor, raw data ([4]; 0.1% topical formulation)	PGE2 (ng/ml) in aqueous humor, raw data ([4]; 0.5% topical formulation)	PGE2 (ng/ml) in aqueous humor, raw data ([4]; 1% topical formulation) [ng/mL]	PMN in aqueous humor, Mean (number/μl) ([2]; 0.03% topical formulation)	PMN (number/μl) in aqueous humor, raw data ([2]; 0.03% topical formulation)	Mean (mm) Δ(T3-T1) pupillary diameter ([3]; 0.03% topical formulation) [mm]	PGE2 (ng/ml) in aqueous humor, raw data ([4]; 0.03% topical formulation)	PMN in aqueous humor, Mean (number/μl) ([2]; 0.1% topical formulation)
Cc1ccc2c(NCC(O)(CC(C)(C)c3cc(F)cc4c3OCC4)C(F)(F)F)cccc2n1 (stereo not drawn) [BOL]	active in this model; also recorded: as effective an anti-inflammatory drug as some of the commonly accepted prior-art steroids or NSAID	20 number/μl (4×) and 40 number/μl and 50 number/μl	40 number/μl (2×) and 20 number/μl (3×) and 10 number/μl (3×)	30 number/μl (3×) and 20 number/μl (3×) and 40 number/μl (2×)	−1.1	−1.0	−0.9	0.70 ng/mL	0.53 ng/mL and 0.75 ng/mL and 0.80 ng/mL	0.50	–	–	–	–	–
CC(C(=O)O)c1ccc(-c2ccccc2)c(F)c1 (stereo not drawn) [F, flurbiprofen]	–	–	–	–	–	–	–	–	–	–	30.000	50 number/μl and 40 number/μl (2×) and 20 number/μl (2×) and 10 number/μl and 30 number/μl	−0.9	0.75 ng/mL and 0.85 ng/mL and 0.93 ng/mL and 0.61 ng/mL	–
CCOC(=O)O[C@]1(C(=O)OCCl)CC[C@H]2[C@@H]3CCC4=CC(=O)C=C[C@]4(C)[C@H]3[C@@H](O)C[C@@]21C [LE, loteprednol etabonate]	–	–	40 number/μl (2×) and 20 number/μl (3×) and 30 number/μl	–	–	−0.9	–	–	^2N/D^ and 0.23 ng/ml and 0.68 ng/ml and 1.10 ng/ml	–	–	–	–	–	–
C[C@@H]1C[C@H]2[C@@H]3CCC4=CC(=O)C=C[C@]4(C)[C@@]3(F)[C@@H](O)C[C@]2(C)[C@@]1(O)C(=O)CO [Dex, dexamethasone]	–	20 number/μl (3×) and 50 number/μl and 40 number/μl and 30 number/μl	–	–	−0.8	–	–	2.10 ng/mL and 1.30 ng/mL	–	–	–	–	–	–	30.000

From US20080009437A1, “Pharmaceutical Compositions and Method for Treating Dry Eye” (priority 2006, published 2008)
